Results published in PubChem BioAssay AID179 (DTP/NCI, 2004).
“And” between values parts separate entries of the source, which are not always exact repeats. Identical values can stand only once. The source made the active and inactive calls.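 How the source made its calls: active means compounds giving half or more protection of infected cells from virus-caused growth loss, again on retest; inactive means the rest.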

System: CEM cells HIV-1 protection, formazan growth assay
Test: NCI AIDS Antiviral Assay
Details: for IC50: measured here: growth of uninfected CEM cells
Procedure, shortened: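 Human CEM cells, uninfected and HIV-1-infected, exposed to five drug concentrations; growth measured by soluble formazan assay and scored as percent protection from infection, with protecting compounds retested.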

Row | SMILES | EC50 | IC50 | outcome
1 | Cc1ccccc1C(O)(c1nccn1C)c1nccn1C | > 200 µM | > 200 µM | –
2 | S=C1c2ccccc2NC(=NC2CCCC2)C2CSCN12 (stereo not drawn) | > 200 µM | 148 µM | –
3 | CC(=O)c1sc2c(c1OC(=O)c1ccc(Cl)cc1Cl)c(=O)n(-c1ccccc1)c(=S)n2-c1ccccc1 | > 200 µM | 0.0631 µM | –
4 | CC1(C)NN=C(SCc2ccccc2)NC1=O | 40.7 µM | 145 µM | –
5 | N#Cc1c(N2CCN(c3ccc([N+](=O)[O-])cc3)CC2)[n+](=O)c2ccc(Cl)cc2n1[O-] | > 20 µM | 0.631 µM | –
6 | C[C@H](CCCN1CCN(C)CC1)[C@H]1CC[C@H]2[C@@H]3CC[C@@H]4C[C@H](O)CC[C@]4(C)[C@H]3CC[C@]12C | > 50.1 µM | 3.09 µM | –
7 | CC1=C(C(=O)Nc2cccc(Cl)c2)C(c2ccccc2O)C(C(=O)Nc2cccc(Cl)c2)=C(C)N1 | > 50.1 µM | 12 µM | –
8 | O=c1c(F)cn2c(=O)n1CCCCCCCn1c(=O)c(F)cn(c1=O)CCCCCCC2 | > 200 µM | 155 µM | –
9 | CCOC(=O)C12C3CCC1C2C(=O)C3 (stereo not drawn) | – | – | inactive
10 | CNc1ccc(OC)cc1S(=O)(=O)c1ccccc1[N+](=O)[O-] | 148 µM | 182 µM | –
11 | O=C(O)c1cc(O)cc(O)c1N=Nc1ccc(/C=C/c2ccc(N=Nc3c(O)cc(O)cc3C(=O)O)cc2)cc1 | 70.8 µM and 25.1 µM | 132 µM and > 100 µM | –
12 | N=C(N)SC(c1ccccc1)C(O)c1ccccc1 (stereo not drawn) | > 200 µM | 91.2 µM | –
13 | CC(=O)Nc1ccc(S(=O)(=O)Nc2ccc(S(=O)(=O)c3ccc(-n4sc5ccccc5c4=O)cc3)cc2)cc1 | 16.6 µM | 102 µM | –
14 | COc1cc2c(cc1OC)CC1c3cc(OC)c(OC)cc3CCN1CC2 (stereo not drawn) | > 200 µM | 30.2 µM | –
15 | CCOC(=O)C(NC(C)=O)[CH](c1ccccc1)[Sn]([c]1ccccc1)([c]1ccccc1)[c]1ccccc1 (stereo not drawn) | > 31.6 µM | 7.08 µM | –
16 | CCOC(=O)/C(Cl)=C(\C)Nc1nc2c(ccc3ccccc32)s1 | > 100 µM | 49 µM | –
17 | COc1cc(/C=C/C(=O)CC(=O)/C=C/c2ccc(O)c(O)c2)ccc1O | > 200 µM | 6.76 µM | –
18 | Nc1ncn(C2OC(COP(=O)(O)O)C(O)C2O)c(=O)n1 (stereo not drawn) | > 200 µM | 8.51 µM | –
19 | COc1c(Cc2ccccc2O)c(O)c(Cc2cc(Cc3ccccc3O)ccc2O)c(O)c1C(=O)CCc1ccccc1 | > 60.3 µM | 21.4 µM | –
20 | COC(=O)c1cc2c(cc1CC(Cc1ccc3c(c1)CCCC3)C(=O)OC)CCCC2 (stereo not drawn) | > 200 µM | 57.5 µM | –

Row | SMILES | EC50 | IC50 | outcome
21 | CNC(=O)c1ccc(NC(=O)Nc2cccc(C3=NCCN3)c2)cc1NC(=O)Nc1cccc(C2=NCCN2)c1 | 28.2 µM | 178 µM | –
22 | CCSC1=N/C(=C/c2ccccc2O)C(=O)N1 | > 200 µM | 123 µM | –
23 | CN1C2CCC1C(C(=O)O)C(O)C2 (stereo not drawn) | > 200 µM | > 200 µM | –
24 | NC(C(=O)O)/C1=C/CCCCCC1 (stereo not drawn) | > 200 µM | > 200 µM | –
25 | O=C(O)c1ccc(/C=C/c2ccc(N=Nc3c(O)cc(O)cc3C(=O)O)cc2C(=O)O)cc1 | > 200 µM | 120 µM | –
26 | Cc1cc2c(C)nn(Cc3ccc(Cl)cc3)c2c(C#N)c1C | > 43.7 µM | > 43.7 µM | –
27 | Cc1cc2c(cc1C)NC(=O)CC(=O)N2 | > 200 µM | > 200 µM | –
28 | NNC(=O)c1ccc(OCc2nc3ccccc3[nH]2)cc1 | > 200 µM | 67.6 µM | –
29 | Cc1cc2oc(C)c(S(=O)(=O)NC(=O)Nc3ccc(Cl)cc3)c(=O)c2c(=O)o1 | > 200 µM | 107 µM | –
30 | COC(=O)N1CC2C3C4CC(C(c5ccccc5)=C4c4ccccc4)C3C21 (stereo not drawn) | > 200 µM | 29.5 µM | –
31 | O=c1oc2ncccc2n1Cc1ccc([N+](=O)[O-])cc1 | > 200 µM | > 200 µM | –
32 | O=[N+]([O-])c1ccc(C2=Nn3c(nnc3-c3ccc(Cl)cc3)SC2)o1 | – | – | inactive
33 | O=C(Cn1ccnc1[N+](=O)[O-])c1ccc(F)cc1 | > 724 µM | 339 µM | –
34 | COC1=C(OC)C(=O)C(C/C=C(\C)CC/C=C(\C)CC/C=C(\C)CC/C=C(\C)CC/C=C(\C)CC/C=C(\C)CC/C=C(\C)CC/C=C(\C)CC/C=C(\C)CCC=C(C)C)=C(C)C1=O | > 110 µM | > 110 µM | –
35 | COc1ccc(/C=C2\NC(=S)NC2=O)cc1 | > 200 µM | 151 µM | –
36 | Cn1c(=O)ccc2ccc(N(CCO)CCO)nc21 | > 200 µM | > 200 µM | –
37 | NCCNCc1c2ccccc2c(CNCCN)c2ccccc12 | > 95.5 µM | 7.94 µM | –
38 | N#C/C(=C1/c2cc([N+](=O)[O-])ccc2-c2c1cc([N+](=O)[O-])cc2[N+](=O)[O-])N1CCCCC1 | > 200 µM | > 200 µM | –
39 | O=C1Nc2ccc(Cl)cc2C(=O)N2CCC[C@@H]12 | > 200 µM | > 200 µM | –
40 | O=C(O)c1c(F)c(F)c(S)c(F)c1F | 17.8 µM | > 200 µM | –
